In ChEMBL document CHEMBL5226287, “Small organic molecules targeting the energy metabolism of Mycobacterium tuberculosis” (Eur J Med Chem, 2021):
In brackets after ≈: the same amount, converted by molar mass. Starred links: 1 amine or outer side, 2 acyl side, 3 side chain; linkers in the order of their positions; H or OH if unused. Non-standard residues stand in square brackets, D forms with d. Residues, ends and D or L forms follow the SMILES beside them. ξ: configuration not given here. *: point of attachment. X1 = CCC(=O)C[C@@H](O)C[C@@H](C)C[C@H](N[*:1])C(=O)[*:2]; Alaψ(CH2NMeCH2CH2OH) = C[C@@H](CN(C)CCO)N*; Decanoyl(2R-Me) = CCCCCCCC[C@@H](C)C(=O)*; Ile(3ξ) = CCC(C)[C@H](N)C(=O)O; ξβ3hP = O=C(O)CC1CCCN1; Aib = CC(C)(N)C(=O)O

Key:
Format in all cases: functional
[1] = tested on: Mycobacterium tuberculosis; assay: Antimycobacterial activity against Mycobacterium tuberculosis QcrBT mutant assessed as reduction in bacterial growth
[2] = tested on: Mycobacterium tuberculosis; assay: Antibacterial activity against Mycobacterium tuberculosis H37Rv resistant isoniazid by CLSI broth microdilution method; conditions: route inh
[3] = tested on: Mycobacterium tuberculosis; assay: Antibacterial activity against Mycobacterium tuberculosis H37Rv resistant rifampicin by CLSI broth microdilution method
[4] = tested on: Mycobacterium tuberculosis; assay: Antibacterial activity against rifampicin-resistant Mycobacterium tuberculosis H37Rv assessed as bacterial growth inhibition by microdilution method
[5] = tested on: Mycobacterium tuberculosis; assay: Antibacterial activity against isoniazid-resistant Mycobacterium tuberculosis H37Rv assessed as bacterial growth inhibition by microdilution method
[6] = tested on: Mycobacterium tuberculosis; assay: Antibacterial activity against drug resistant Mycobacterium tuberculosis H37Rv in the presence of ATP synthase
[7] = tested on: Mycobacterium tuberculosis; assay: Antibacterial activity against Mycobacterium tuberculosis H37Rv overexpressed in ATP synthase

Which MIC90 [1] does the source give for Cc1ccn2c(C(=O)NCc3ccccc3)c(C)nc2c1 here?
The MIC90 was 6.5 µM (≈ 1.82 µg/mL).

With CCCc1cc(OCC(=O)Nc2ccccc2OC)c2cc(OC)ccc2n1 as the molecule, how does the MIC [2] read?
The MIC was 0.01 µg/mL (≈ 0.0263 µM).

What about the MIC [3] of the same molecule?
The MIC was 0.01 µg/mL (≈ 0.0263 µM).

With Cc1cn2c(C(=O)NCc3ccc(C(F)(F)F)cc3)c(C)nc2s1 as the molecule, how does the MIC [4] read?
Its MIC is less than 0.04 µM.

What about the MIC [5] of the same molecule?
The MIC was less than 0.04 µM.

Which MIC [6] does the source give for CN(C)Cc1ccc(-c2cc3cc(Br)ccc3nc2OCc2ccncc2)cc1 here?
Its MIC is 0.48 µg/mL.

How did the MIC [4] turn out when Cc1cn2c(C(=O)NCc3ccc(N4CCN(c5ccc(C(F)(F)F)cn5)CC4)c(F)c3)c(C)nc2s1 was run?
The MIC was less than 0.201 µM.

And the MIC [5]?
Its MIC is less than 0.506 µM.

CN(C)CCN1CCN(c2ccc(-c3cc4cc(Br)ccc4nc3OCc3ccc4ccccc4c3)cc2)CC1 was tested. Which MIC [6] did it give?
The MIC was 0.94 µg/mL.

How did the MIC90 [1] turn out when Cc1ccn2c(C(=O)NCc3cccc(OC(C)C)c3)c(C)nc2c1 was run?
The MIC90 was greater than 20 µM.

Which MIC [7] does the source give for CCCCCCCC[C@@H](C)C(=O)N1CCCC1CC(=O)N[C@@H](C[C@H](C)C[C@H](O)CC(=O)CC)C(=O)NC(C)(C)C(=O)NC(C)(C)C(=O)N[C@H](C(=O)N[C@H](C(=O)NC(C)(C)C(=O)NC(C)(C)C(=O)N[C@@H](C)CN(C)CCO)C(C)C)C(C)CC (stereo partly drawn) ({Decanoyl(2R-Me)}-[ξβ3hP][X1][Aib][Aib][Ile(3ξ)]V[Aib][Aib]-{Alaψ(CH2NMeCH2CH2OH)}) here?
The MIC was 0.12 µg/mL (≈ 0.102 µM).
